US20160194299A1 (priority 2013, published 2016)
In brackets after ≈: the same amount, converted by molar mass. Read-outs that look alike come from different tables or passages of the source.

Assays:
Mtb [1] = test: microbe, parasite or virus in culture; format: cell-based, Mycobacterium tuberculosis; settings: Mycobacterium tuberculosis, read-out: MIC (I)
in vitro = settings: African green monkey
Mtb [2] = test: microbe, parasite or virus in culture; format: cell-based, Mycobacterium tuberculosis; settings: Mycobacterium tuberculosis, read-out: MIC (III)

Row | Compound | MIC (Mtb [1]) [µg/mL] | CC50 (in vitro) [µg/mL] | MIC (Mtb [2]) [µg/mL]
1 | CCOC(=O)NC(=O)c1ccsc1NC(=O)c1cc(C)nc2ccccc12 [Compound 122] | > 3 | > 50 | > 25
2 | CCOC(=O)NC(=O)c1ccsc1NC(=O)c1ccnc2ccc(OC)cc12 [Compound 123] | > 3 | > 50 | 5 to 25 (≈ 12.5 to 62.6 µM)
3 | CCOC(=O)NC(=O)c1ccsc1NC(=O)c1cn2cccc(C#N)c2n1 [Compound 124] | > 3 | > 50 | < 5
4 | CCOC(=O)NC(=O)c1ccsc1NC(=O)c1nc2ncccn2n1 [Compound 125] | > 3 | > 50 | 5 to 25 (≈ 13.9 to 69.4 µM)
5 | CCOC(=O)NC(=O)c1ccsc1NC(=O)c1nc(S(C)(=O)=O)ncc1Cl [Compound 126] | > 3 | < 25 | > 25
6 | CCOC(=O)NC(=O)c1ccsc1NC(=O)c1cnc(OC)cn1 [Compound 127] | > 3 | > 50 | > 25
7 | CCOC(=O)NC(=O)c1ccsc1NC(=O)c1cnc(O)cn1 [Compound 129] | > 3 | > 50 | > 25
8 | CCOC(=O)NC(=O)c1ccsc1NC(=O)c1nc(-c2ccccc2)oc1C [Compound 130] | > 3 | > 50 | > 25
9 | CCOC(=O)NC(=O)c1ccsc1NC(=O)c1csc(C(F)(F)F)n1 [Compound 131] | > 3 | < 25 | 5 to 25 (≈ 12.7 to 63.6 µM)
10 | CCOC(=O)NC(=O)c1ccsc1NC(=O)c1ccc2c(c1)CCO2 [Compound 132] | > 3 | > 50 | 5 to 25 (≈ 13.9 to 69.4 µM)
11 | CCOC(=O)NC(=O)c1ccsc1NC(=O)c1csc(-c2ccccn2)n1 [Compound 133] | > 3 | > 50 | > 25
12 | CCOC(=O)NC(=O)c1ccsc1NC(=O)c1sc(-c2ccncc2)nc1C [Compound 135] | > 3 | > 50 | > 25
13 | CCOC(=O)NC(=O)c1ccsc1NC(=O)c1sc(-c2cccnc2)nc1C [Compound 136] | > 3 | > 50 | > 25
14 | CCOC(=O)NC(=O)c1ccsc1NC(=O)c1sc(C)nc1C(F)(F)F [Compound 137] | > 3 | > 50 | > 25
15 | CCOC(=O)NC(=O)c1ccsc1NC(=O)c1nn(-c2ccccc2)nc1C [Compound 138] | > 3 | > 50 | > 25
16 | CCOC(=O)NC(=O)c1ccsc1NC(=O)c1cccc2ncccc12 [Compound 139] | > 3 | > 50 | > 25
17 | CCOC(=O)NC(=O)c1ccsc1NC(=O)c1ccc(=O)n(C)c1 [Compound 140] | > 3 | > 50 | 5 to 25 (≈ 14.3 to 71.6 µM)
18 | CCOC(=O)NC(=O)c1ccsc1NC(=O)c1cnc2ccccn12 [Compound 142] | > 3 | 25 to 50 (≈ 69.8 to 140 µM) | > 25
19 | CCOC(=O)NC(=O)c1ccsc1NC(=O)C1CCc2ccccc2N1 (stereo not drawn) [Compound 143] | > 3 | > 50 | 5 to 25 (≈ 13.4 to 66.9 µM)
20 | CCOC(=O)NC(=O)c1ccsc1NC(=O)c1nc(C(F)(F)F)cs1 [Compound 144] | > 3 | > 50 | > 25
21 | CCOC(=O)NC(=O)c1ccsc1NC(=O)c1ccc2cnccc2c1 [Compound 145] | > 3 | > 50 | > 25

Row | Compound | MIC (Mtb [1]) [µg/mL] | CC50 (in vitro) [µg/mL] | MIC (Mtb [2]) [µg/mL]
22 | CCOC(=O)NC(=O)c1c(C)csc1NC(=O)c1ccc2scnc2c1 [Compound 146] | > 3 | > 50 | > 25
23 | CCOC(=O)NC(=O)c1ccsc1NC(=O)c1cc(O)ncn1 [Compound 147] | > 3 | > 50 | > 25
24 | CCOC(=O)NC(=O)c1ccsc1NC(=O)c1cn2cc(C)ccc2n1 [Compound 208] | > 3 | > 50 | > 25
25 | CCOC(=O)NC(=O)c1ccsc1NC(=O)c1nc2c(s1)CCCC2 [Compound 217] | < 1 | > 50 | > 25
26 | CCOC(=O)NC(=O)c1ccsc1NC(=O)c1nc2c(N3CCOCC3)ccnc2s1 [Compound 247] | < 1 | 25 to 50 (≈ 54.2 to 108 µM) | 5 to 25 (≈ 10.8 to 54.2 µM)
27 | CCOC(=O)NC(=O)c1ccsc1NC(=O)c1nc2c(N3CCOCC3)nccc2s1 [Compound 248] | < 1 | > 50 | > 25
28 | CN1CCCN(C(=O)c2ccsc2NC(=O)c2nc3ccccc3s2)CC1 [Compound 254] | > 3 | > 50 | > 25
29 | CCN1CCN(C(=O)c2ccsc2NC(=O)c2nc3ccccc3s2)CC1 [Compound 257] | > 3 | 25 to 50 (≈ 62.4 to 125 µM) | 5 to 25 (≈ 12.5 to 62.4 µM)
30 | O=C(Nc1sccc1C(=O)N1CCN(c2ccccc2)CC1)c1nc2ccccc2s1 [Compound 258] | > 3 | > 50 | > 25
31 | O=C(Nc1sccc1C(=O)NC1CCNCC1)c1nc2ccccc2s1 [Compound 259] | > 3 | > 50 | > 25
32 | CC1CCN(C(=O)c2ccsc2NC(=O)c2nc3ccccc3s2)CC1 [Compound 260] | > 3 | 25 to 50 (≈ 64.8 to 130 µM) | > 25
33 | CCOC(=O)NC(=O)c1ccsc1NC(=O)c1nc2c(N3CCN(C)CC3)nccc2s1 [Compound 262] | 1 to 3 (≈ 2.11 to 6.32 µM) | 25 to 50 (≈ 52.7 to 105 µM) | 5 to 25 (≈ 10.5 to 52.7 µM)
34 | CCOC(=O)NC(=O)c1ccsc1NC(=O)c1cncn1C [Compound 263] | > 3 | > 50 | > 25
35 | CCOC(=O)NC(=O)c1ccsc1NC(=O)c1cnc2ccccc2c1 [Compound 264] | < 1 | < 25 | 5 to 25 (≈ 13.5 to 67.7 µM)
36 | CCOC(=O)NC(=O)c1ccsc1NC(=O)c1cnn2ccccc12 [Compound 265] | > 3 | 25 to 50 (≈ 69.8 to 140 µM) | > 25
37 | CCOC(=O)NC(=O)c1ccsc1NC(=O)c1cnc2c(Br)cnn2c1 [Compound 266] | < 1 | 25 to 50 (≈ 57 to 114 µM) | > 25
38 | CCOC(=O)NC(=O)c1ccsc1NC(=O)c1nc2cnc(Cl)cc2s1 [Compound 267] | < 1 | > 50 | > 25
39 | CCOC(=O)NC(=O)c1ccsc1NC(=O)c1nc2c(N(C)C)ccnc2s1 [Compound 268] | < 1 | > 50 | > 25
40 | CCOC(=O)NC(=O)c1ccsc1NC(=O)c1nc2c(N3CCN(C)CC3)ccnc2s1 [Compound 269] | < 1 | > 50 | 5 to 25 (≈ 10.5 to 52.7 µM)
41 | CCOC(=O)NC(=O)c1ccsc1NC(=O)c1nc2c(N(C)C)nccc2s1 [Compound 270] | < 1 | > 50 | > 25
42 | O=C(NC(=O)c1ccsc1NC(=O)c1nc2ccccc2s1)OCc1ccc(F)cc1 [Compound 274] | 1 to 3 (≈ 2.2 to 6.59 µM) | < 25 | > 25

Row | Compound | MIC (Mtb [1]) [µg/mL] | CC50 (in vitro) [µg/mL] | MIC (Mtb [2]) [µg/mL]
43 | O=C(NC(=O)c1ccsc1NC(=O)c1nc2cnccc2s1)OCc1ccc(F)cc1 [Compound 275] | > 3 | 25 to 50 (≈ 54.8 to 110 µM) | > 25
44 | CCOC(=O)NC(=O)c1cc(CC(=O)OC)sc1NC(=O)c1nc2cnccc2s1 [Compound 276] | > 3 | 25 to 50 (≈ 55.7 to 111 µM) | > 25
45 | CCOC(=O)NC(=O)c1cc(CC(C(=O)OCC)C(=O)OCC)sc1NC(=O)c1nc2cnccc2s1 [Compound 278] | > 3 | > 50 | > 25
46 | CCOC(=O)NC(=O)c1cc(C(=O)OCC)sc1NC(=O)c1nc2cnccc2s1 [Compound 279] | > 3 | 25 to 50 (≈ 55.7 to 111 µM) | > 25
47 | Cc1cc(COC(=O)NC(=O)c2ccsc2NC(=O)c2nc3cnccc3s2)ccn1 [Compound 280] | > 3 | 25 to 50 (≈ 55.1 to 110 µM) | > 25
48 | CC(C)COC(=O)NC(=O)c1ccsc1NC(=O)c1nc2ccccc2s1 [Compound 281] | < 1 | 25 to 50 (≈ 62 to 124 µM) | > 25
49 | CC(C)COC(=O)NC(=O)c1ccsc1NC(=O)c1nc2cnccc2s1 [Compound 282] | > 3 | 25 to 50 (≈ 61.8 to 124 µM) | > 25
50 | CC(C)COC(=O)NC(=O)c1ccsc1NC(=O)c1cnc2ccnn2c1 [Compound 283] | 1 to 3 (≈ 2.58 to 7.74 µM) | 25 to 50 (≈ 64.5 to 129 µM) | > 25
51 | O=C(NC(=O)c1ccsc1NC(=O)c1cnc2ccnn2c1)OCc1ccc(F)cc1 [Compound 284] | > 3 | 25 to 50 (≈ 56.9 to 114 µM) | > 25
52 | O=C(NC(=O)c1ccsc1NC(=O)c1cnc2ccnn2c1)OCc1ccccc1F [Compound 285] | > 3 | < 25 | > 25
53 | O=C(NC(=O)c1ccsc1NC(=O)c1nc2cnccc2s1)OCc1ccccc1F [Compound 287] | 1 to 3 (≈ 2.19 to 6.57 µM) | 25 to 50 (≈ 54.8 to 110 µM) | 5 to 25 (≈ 11 to 54.8 µM)
54 | O=C(NC(=O)c1ccsc1NC(=O)c1nc2cccnc2s1)OCc1ccccc1C(F)(F)F [Compound 288] | > 3 | < 25 | 5 to 25 (≈ 9.87 to 49.4 µM)
55 | O=C(NC(=O)c1ccsc1NC(=O)c1cnc2ccnn2c1)OCc1ccccc1C(F)(F)F [Compound 289] | > 3 | < 25 | > 25
56 | CCOC(=O)NC(=O)c1ccsc1NC(=O)c1cn2c(C)cccc2n1 [Compound 290] | > 3 | > 50 | > 25
57 | O=C(Nc1sccc1C(=O)OCCN1CCOCC1)c1nc2ccccc2s1 [Compound 291] | > 3 | > 50 | > 25
58 | CCOC(=O)NC(=O)c1ccsc1NC(=O)c1cn2c(n1)sc1ccccc12 [Compound 292] | > 3 | > 50 | > 25
59 | C=CCOC(=O)NC(=O)c1ccsc1NC(=O)c1nc2ccccc2s1 [Compound 293] | < 1 | < 25 | < 5
60 | O=C(NC(=O)c1ccsc1NC(=O)c1nc2ccccc2s1)OCc1ccccc1C(F)(F)F [Compound 294] | > 3 | 25 to 50 (≈ 49.5 to 98.9 µM) | > 25
61 | O=C(NC(=O)c1ccsc1NC(=O)c1nc2cnccc2s1)OCc1ccccc1C(F)(F)F [Compound 295] | > 3 | < 25 | 5 to 25 (≈ 9.87 to 49.4 µM)
